# Measured values published in patent US11104675B2, “PTPN11 inhibitors” (NAVIRE PHARMA, INC., priority 2018, dated 2021).
# Test system: KYSE520 xenografts
# Assay: In vivo anti-tumor efficacy, KYSE520 xenograft model
# Parameters: species or system NSG (NOD scid gamma) mice
# Settings: NSG mice, subcutaneous KYSE520 xenografts, oral gavage once a day for 21 days
row,SMILES,tumor growth inhibition
1,"Cc1c(N2CCC3(CC2)CO[C@@H](C)[C@H]3N)nc(C)n(-c2cccc(Cl)c2Cl)c1=O (atropisomer, axis not shown; (Ra)) [Example 10b, 6-((3S, 4S)-4-amino-3-methyl-2-oxa-8-azaspiro[4.5]decan-8-yl)-3-(Ra)-(2,3-dichlorophenyl)-2,5-dimethylpyrimidin-4(3H)-one]",dose-dependent tumor growth inhibition

# Target: PTPN11-E76K mutant enzyme (Homo sapiens (Human), UniProt Q06124, E76K)
# Assay: PTPN11 Enzymatic Assay (DiFMUP phosphatase activity)
# Format: biochemical
# Settings: full length PTPN11-E76K, DiFMUP substrate; read-out: IC50, inhibition of PTPN11-E76K mutant enzyme
# Chain of PTPN11-E76K mutant enzyme (Q06124 whole entry E76K): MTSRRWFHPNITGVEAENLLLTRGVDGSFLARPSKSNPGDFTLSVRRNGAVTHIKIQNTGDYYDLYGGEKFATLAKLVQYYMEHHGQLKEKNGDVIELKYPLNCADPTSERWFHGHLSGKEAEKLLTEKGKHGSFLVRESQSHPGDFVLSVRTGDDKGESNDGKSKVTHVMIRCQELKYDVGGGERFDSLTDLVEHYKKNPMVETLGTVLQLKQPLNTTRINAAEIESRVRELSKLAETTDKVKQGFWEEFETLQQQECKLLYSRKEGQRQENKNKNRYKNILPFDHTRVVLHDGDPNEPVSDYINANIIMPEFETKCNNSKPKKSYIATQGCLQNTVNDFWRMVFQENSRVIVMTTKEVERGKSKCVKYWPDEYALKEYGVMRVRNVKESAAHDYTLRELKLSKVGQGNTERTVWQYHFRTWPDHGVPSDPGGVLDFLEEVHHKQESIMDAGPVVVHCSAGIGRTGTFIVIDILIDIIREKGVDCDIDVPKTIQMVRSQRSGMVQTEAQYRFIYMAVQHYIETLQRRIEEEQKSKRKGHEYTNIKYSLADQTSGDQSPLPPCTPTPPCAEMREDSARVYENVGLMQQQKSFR
row,SMILES,IC50 [nM]
1,"Cc1c(N2CCC3(CC2)CO[C@@H](C)[C@H]3N)nc(C)n(-c2cccc(Cl)c2Cl)c1=O (atropisomer, axis not shown; (Ra)) [Example 10b, 6-((3S, 4S)-4-amino-3-methyl-2-oxa-8-azaspiro[4.5]decan-8-yl)-3-(Ra)-(2,3-dichlorophenyl)-2,5-dimethylpyrimidin-4(3H)-one]",28
2,"Cc1nc(N2CCC3(CC2)CO[C@@H](C)[C@H]3N)c(Br)c(=O)n1-c1cccc(Cl)c1Cl (atropisomer, axis not shown; (Sa)) [Example 12a, 6-((3S, 4S)-4-Amino-3-methyl-2-oxa-8-azaspiro[4.5]decan-8-yl)-5-bromo-3-(Sa)-(2,3-dichlorophenyl)-2-methylpyrimidin-4(3H)-one]",3460
3,"Cc1nc(N2CCC3(CC2)CO[C@@H](C)[C@H]3N)c(Cl)c(=O)n1-c1ccnc(Cl)c1Cl [Example 17, 6-((3S, 4S)-4-Amino-3-methyl-2-oxa-8-azaspiro[4.5]decan-8-yl)-5-chloro-3-(2,3-dichloropyridin-4-yl)-2-methylpyrimidin-4(3H)-one]",618
4,"Cc1nc(N2CCC3(CC2)CO[C@@H](C)[C@H]3N)cc(=O)n1-c1cccc(F)c1F [Example 5, 6-[(3S,4S)-4-amino-3-methyl-2-oxa-8-azaspiro[4.5]decan-8-yl]-3-(2,3-difluorophenyl)-2-methyl-3,4-dihydropyrimidin-4-one]",1170
5,"Cc1c(N2CCC3(CC2)CO[C@@H](C)[C@H]3N)nc(C)n(-c2cccc(Cl)c2Cl)c1=O (atropisomer, axis not shown; (Sa)) [Example 10a, 6-((3S, 4S)-4-Amino-3-methyl-2-oxa-8-azaspiro[4.5]decan-8-yl)-3-(Sa)-(2,3-dichlorophenyl)-2,5-dimethylpyrimidin-4(3H)-one]",2580
6,"Cc1nc(N2CCC3(CC2)CO[C@@H](C)[C@H]3N)cc(=O)n1-c1cccc(Cl)c1Br [Example 8, 6-((3S,4S)-4-amino-3-methyl-2-oxa-8-azaspiro[4.5]decan-8-yl)-3-(2-bromo-3-chlorophenyl)-2-methylpyrimidin-4(3H)-one]",360
7,"COc1cccc(-n2c(C)nc(N3CCC4(CC3)CO[C@@H](C)[C@H]4N)cc2=O)c1Cl (atropisomer, axis not shown; (Sa)) [Example 7a, 6-((3S,4S)-4-amino-3-methyl-2-oxa-8-azaspiro[4.5]decan-8-yl)-3-(Sa)-(2-chloro-3-methoxyphenyl)-2-methylpyrimidin-4(3H)-one]",> 10000
8,"Cc1nc(N2CCC3(CC2)CO[C@@H](C)[C@H]3N)cc(=O)n1-c1ccc(Br)c(Cl)c1Cl [Example 6, 6-((3S,4S)-4-amino-3-methyl-2-oxa-8-azaspiro[4.5]decan-8-yl)-3-(4-bromo-2,3-dichlorophenyl)-2-methylpyrimidin-4(3H)-one]",203
9,"CCC1(N)CCN(c2cc(=O)n(-c3cccc(Cl)c3Cl)c(C)n2)CC1 [Example 4, 6-(4-amino-4-ethylpiperidin-1-yl)-3-(2,3-dichlorophenyl)-2-methyl-3,4-dihydropyrimidin-4-one]",480
10,"Cc1cccc(-n2c(C)nc(N3CCC4(CC3)CO[C@@H](C)[C@H]4N)cc2=O)c1Cl (atropisomer, axis not shown; (Ra)) [Example 13b, 6-((3S, 4S)-4-amino-3-methyl-2-oxa-8-azaspiro[4.5]decan-8-yl)-3-(Ra)-(2-chloro-3-methylphenyl)-2-methylpyrimidin-4(3H)-one]",186
11,"Cc1cccc(-n2c(C)nc(N3CCC4(CC3)CO[C@@H](C)[C@H]4N)cc2=O)c1Cl (atropisomer, axis not shown; (Sa)) [Example 13a, 6-((3S, 4S)-4-Amino-3-methyl-2-oxa-8-azaspiro[4.5]decan-8-yl)-3-(Sa)-(2-chloro-3-methylphenyl)-2-methylpyrimidin-4(3H)-one]",7500
12,"Cc1nc(N2CCC3(CC2)CO[C@@H](C)[C@H]3N)c(Br)c(=O)n1-c1cccc(Cl)c1Cl (atropisomer, axis not shown; (Ra)) [Example 12b, 6-((3S, 4S)-4-amino-3-methyl-2-oxa-8-azaspiro[4.5]decan-8-yl)-5-bromo-3-(Ra)-(2,3-dichlorophenyl)-2-methylpyrimidin-4(3H)-one]",20
13,"COc1cccc(-n2c(C)nc(N3CCC4(CC3)CO[C@@H](C)[C@H]4N)cc2=O)c1Cl (atropisomer, axis not shown; (Ra)) [Example 7b, 6-((3S,4S)-4-amino-3-methyl-2-oxa-8-azaspiro[4.5]decan-8-yl)-3-(Ra)-(2-chloro-3-methoxyphenyl)-2-methylpyrimidin-4(3H)-one]",153
14,"Cc1nc(N2CCC(C)(CN)CC2)cc(=O)n1-c1cccc(Cl)c1Cl [Example 3, 6-[4-(aminomethyl)-4-methylpiperidin-1-yl]-3-(2,3-dichlorophenyl)-2-methyl-3,4-dihydropyrimidin-4-one]",310

# Further lines, results first:
row,IC50 [nM],SMILES
1,3,"Cc1c(N2CCC3(CC2)CO[C@@H](C)[C@H]3N)nc(C)n(-c2ccc(Oc3ccn(C)n3)c(Cl)c2Cl)c1=O (atropisomer, axis not shown; (Ra)) [Example 18b, 6-((3 S, 4 S)-4-Amino-3-methyl-2-oxa-8-azaspiro[4.5]decan-8-yl)-3-(Ra)-(2,3-dichloro-4-((1-methyl-1H-pyrazol-3-yl)oxy)phenyl)-2,5-dimethylpyrimidin-4(3H)-one]"
2,9550,"Cc1nc(N2CCC3(CC2)CO[C@@H](C)[C@H]3N)cc(=O)n1-c1ccc(Oc2ccn(C)n2)c(Cl)c1Cl (atropisomer, axis not shown; (Sa)) [Example 16a, 6-((3 S, 4S)-4-Amino-3-methyl-2-oxa-8-azaspiro[4.5]decan-8-yl)-3-(Sa)-(2,3-dichloro-4-((1-methyl-1H-pyrazol-3-yl)oxy)phenyl)-2-methylpyrimidin-4(3H)-one]"
3,703,"Cc1nc(N2CCC3(CC2)CO[C@@H](C)[C@H]3N)cc(=O)n1-c1cccc(C(F)(F)F)c1Cl (atropisomer, axis not shown; (Ra)) [Example 14b, 6-((3 S, 4S)-4-Amino-3-methyl-2-oxa-8-azaspiro[4.5]decan-8-yl)-3-(Ra)-(2-chloro-3-(trifluoromethyl)phenyl)-2-methylpyrimidin-4(3H)-one]"
4,148,"Cc1nc(N2CCC3(CC2)CO[C@@H](C)[C@H]3N)cc(=O)n1-c1ccc(Oc2ccccc2)c(Cl)c1Cl (atropisomer, axis not shown; (Ra)) [Example 15b, 6-((3S, 4S)-4-amino-3-methyl-2-oxa-8-azaspiro[4.5]decan-8-yl)-3-(Ra)-(2,3-dichloro-4-phenoxyphenyl)-2-methylpyrimidin-4(3H)-one]"
5,> 1000,"Cc1nc(N2CCC3(CC2)CO[C@@H](C)[C@H]3N)cc(=O)n1-c1cccc(C(F)(F)F)c1Cl (atropisomer, axis not shown; (Sa)) [Example 14a, 6-((3S, 4S)-4-Amino-3-methyl-2-oxa-8-azaspiro[4.5]decan-8-yl)-3-(Sa)-(2-chloro-3-(trifluoromethyl)phenyl)-2-methylpyrimidin-4(3H)-one]"
6,> 1000,"Cc1nc(N2CCC3(CC2)CO[C@@H](C)[C@H]3N)cc(=O)n1-c1ccc(Oc2ccccc2)c(Cl)c1Cl (atropisomer, axis not shown; (Sa)) [Example 15a, 6-((3S, 4S)-4-Amino-3-methyl-2-oxa-8-azaspiro[4.5]decan-8-yl)-3-(Sa)-(2,3-dichloro-4-phenoxyphenyl)-2-methylpyrimidin-4(3H)-one]"
7,12,"CNC(=O)c1ccc(Oc2ccc(-n3c(C)nc(N4CCC5(CC4)CO[C@@H](C)[C@H]5N)c(C)c3=O)c(Cl)c2Cl)cc1 (atropisomer, axis not shown; (Ra)) [Example 19b]"
8,5,"Cc1c(N2CCC3(CC2)CO[C@@H](C)[C@H]3N)nc(C)n(-c2ccc(Oc3cc[nH]n3)c(Cl)c2Cl)c1=O (atropisomer, axis not shown; (Ra)) [Example 20b, 3-(4-((1H-pyrazol-3-yl)oxy)-(Ra)-2,3-dichlorophenyl)-6-((3S, 4S)-4-amino-3-methyl-2-oxa-8-azaspiro[4.5]decan-8-yl)-2,5-dimethylpyrimidin-4(3H)-one]"
9,511,"Cc1c(N2CCC3(CC2)CO[C@@H](C)[C@H]3N)nc(C)n(-c2ccc(Oc3ccn(C)n3)c(Cl)c2Cl)c1=O (atropisomer, axis not shown; (Sa)) [Example 18a, 6-((3S, 4S)-4-Amino-3-methyl-2-oxa-8-azaspiro[4.5]decan-8-yl)-3-(Sa)-(2,3-dichloro-4-((1-methyl-1H-pyrazol-3-yl)oxy)phenyl)-2,5-dimethylpyrimidin-4(3H)-one]"
10,92,"Cc1nc(N2CCC3(CC2)CO[C@@H](C)[C@H]3N)cc(=O)n1-c1ccc(Oc2ccn(C)n2)c(Cl)c1Cl (atropisomer, axis not shown; (Ra)) [Example 16b, 6-((3 S, 4S)-4-Amino-3-methyl-2-oxa-8-azaspiro[4.5]decan-8-yl)-3-(Ra)-(2,3-dichloro-4-((1-methyl-1H-pyrazol-3-yl)oxy)phenyl)-2-methylpyrimidin-4(3H)-one]"
